Read-outs that look alike come from different tables or passages of the source.
What was measured:
MV4-11 cells (MLL-AF4) = experiment: Cell proliferation, viable cell count; format: cell-based, human
[1] = test system: HOXA9, MEIS1 and TBP mRNA in MV4-11 and MOLM-13 cells; experiment: Quantitative real-time PCR, time course at 3 μM; format: cell-based, human
SEM cells (MLL-AF4) = experiment: Cell proliferation, viable cell count; format: cell-based; details: Homo sapiens, 336 h, read-out: IC50 inhibition of cell proliferation
[2] = test system: CD14 expression in MOLM-13 cells; experiment: Flow cytometry for cell surface CD14; format: cell-based, human; details: 3 μM, 12 days
PRMT5 = PRMT5 (Homo sapiens, UniProt O14744); experiment: Histone methyltransferase panel IC50, balanced conditions
[3] = test system: primary murine hematopoietic progenitors transformed by MLL-AF9; experiment: Proliferation of transformed hematopoietic progenitors; format: cell-based; details: 10 days treatment, MTT at day 12
[4] = test system: H3K79me2 levels in MOLM-13 cells; experiment: Immunoblot of extracted histones for H3K79me2; format: cell-based, human; details: 4 days, increasing concentrations
[5] = test system: HOXA9 and MEIS1 transcript levels in MOLM-13 cells; experiment: Quantitative real-time PCR, concentration response; details: Homo sapiens, MOLM-13, 144 h
Solubility = format: physicochemical
[6] = test system: H3K79me2 levels in Jurkat cells; experiment: Immunoblot of extracted histones for H3K79me2; format: cell-based, human; details: 4 days, increasing concentrations
MV4-11 cells = experiment: Flow cytometry for DNA content and Annexin V; format: cell-based, human; details: 3 μM
[7] = test system: U937 cells (nonrearranged); experiment: Cell proliferation, viable cell count; format: cell-based; details: Homo sapiens, U-937, 336 h, read-out: IC50 inhibition of cell proliferation
[8] = Plasma concentration by LC-MS/MS, mini-osmotic pump infusion; format: in vivo, mouse; details: for average steady-state plasma concentration: pilot PK
PRMT8 = PRMT8 (Homo sapiens, UniProt Q9NR22); experiment: Histone methyltransferase panel IC50, balanced conditions
[9] = test system: H3K79me2 in MLL-AF9 transformed hematopoietic progenitors; experiment: Immunoblot for H3K79me2 in transformed progenitors; format: cell-based, murine; details: 10 days
[10] = test system: hematopoietic progenitors transformed by coexpression of HoxA9 and Meis1a; experiment: Proliferation of transformed hematopoietic progenitors; format: cell-based, murine; details: concentrations of up to 30 μM
[11] = test system: MV4-11 cells injected into tail vein of NSG mice; experiment: Disseminated MV4-11 leukemia model, survival; format: in vivo, mouse
[12] = test system: Jurkat cells (nonrearranged); experiment: Cell proliferation, viable cell count; format: cell-based, human
[13] = test system: histone methyl marks in MV4-11 cells; experiment: Immunoblot with panel of methyl-lysine and methyl-arginine specific antibodies; format: cell-based, human; details: 10 μM
CARM1 = CARM1 (Homo sapiens, UniProt Q86X55); experiment: Histone methyltransferase panel IC50, balanced conditions
WHSC1 = WHSC1 (Homo sapiens, UniProt O96028); experiment: as above
RS4;11 cells (MLL-AF4) = experiment: Cell proliferation, viable cell count; format: cell-based; details: Homo sapiens, RS4-11, 336 h, read-out: IC50 inhibition of cell proliferation
[14] = test system: REH cells (nonrearranged); experiment: Cell proliferation, viable cell count; format: cell-based; details: Homo sapiens, 336 h, read-out: IC50 inhibition of cell proliferation
MOLM-13 cells (MLL-AF9) = experiment: Cell proliferation, viable cell count; format: cell-based, human
[15] = test system: HL-60 cells (nonrearranged); experiment: Cell proliferation, viable cell count; format: cell-based; details: Homo sapiens, HL-60, 336 h, read-out: IC50 inhibition of cell proliferation
[16] = biological target: EZH1 (in the context of the PRC2 multiprotein complex) (Homo sapiens, UniProt Q92800); experiment: Histone methyltransferase panel IC50, balanced conditions
EHMT2 = EHMT2 (Homo sapiens, UniProt Q96KQ7); experiment: as above
normal C57BL/6 mice = experiment: Hematologic analysis and tolerability in normal mice; format: in vivo, mouse; details: pump 150 mg/ml, 14 days
[17] = test system: Kasumi-1 cells (nonrearranged); experiment: Cell proliferation, viable cell count; format: cell-based; details: Homo sapiens, Kasumi 1, 336 h, read-out: IC50 inhibition of cell proliferation
SETD7 = SETD7 (Homo sapiens, UniProt Q8WTS6); experiment: Histone methyltransferase panel IC50, balanced conditions
[18] = test system: H3K79me2 levels in MV4-11 cells; experiment: Immunoblot of extracted histones for H3K79me2; format: cell-based, human
PRMT1 = PRMT1 (Homo sapiens, UniProt Q99873); experiment: Histone methyltransferase panel IC50, balanced conditions
[19] = test system: HOXA9 and MEIS1 transcript levels in MV4-11 cells; experiment: Quantitative real-time PCR, concentration response; details: Homo sapiens, MV4-11, 144 h
[20] = test system: H3K79me2 in Hoxa9-Meis1a transformed hematopoietic progenitors; experiment: Immunoblot for H3K79me2 in transformed progenitors; format: cell-based, murine; details: 10 days
[21] = test system: 697 cells (nonrearranged); experiment: Cell proliferation, viable cell count; format: cell-based; details: Homo sapiens, 336 h, read-out: IC50 inhibition of cell proliferation
[22] = biological target: EZH2 (in the context of the PRC2 multiprotein complex) (Homo sapiens, UniProt Q15910); experiment: Histone methyltransferase panel IC50, balanced conditions
KOPN-8 cells (MLL-ENL) = experiment: Cell proliferation, viable cell count; format: cell-based; details: Homo sapiens, KOPN-8, 336 h, read-out: IC50 inhibition of cell proliferation
[23] = read-out: IC50 decrease of HOXA9 transcript
[24] = read-out: IC50 decrease of MEIS1 transcript

Sequence of PRMT5 (O14744 whole entry): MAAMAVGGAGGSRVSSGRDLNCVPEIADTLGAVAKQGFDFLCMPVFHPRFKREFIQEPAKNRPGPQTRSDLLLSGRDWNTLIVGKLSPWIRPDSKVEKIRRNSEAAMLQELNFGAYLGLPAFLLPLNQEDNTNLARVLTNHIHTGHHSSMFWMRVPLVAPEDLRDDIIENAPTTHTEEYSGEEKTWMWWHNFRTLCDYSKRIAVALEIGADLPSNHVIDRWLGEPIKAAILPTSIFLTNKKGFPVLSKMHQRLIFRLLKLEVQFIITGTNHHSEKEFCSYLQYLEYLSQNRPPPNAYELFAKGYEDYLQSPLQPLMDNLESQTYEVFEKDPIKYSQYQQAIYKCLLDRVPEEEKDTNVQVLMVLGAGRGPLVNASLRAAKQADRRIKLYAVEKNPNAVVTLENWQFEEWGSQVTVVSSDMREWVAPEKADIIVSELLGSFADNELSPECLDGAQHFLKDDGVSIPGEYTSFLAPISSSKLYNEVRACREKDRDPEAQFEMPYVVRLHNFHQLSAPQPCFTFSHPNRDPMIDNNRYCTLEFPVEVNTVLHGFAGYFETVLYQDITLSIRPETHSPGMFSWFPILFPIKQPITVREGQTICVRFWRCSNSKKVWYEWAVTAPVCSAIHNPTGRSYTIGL
Sequence of PRMT5 (Q9BQA1 whole entry partner): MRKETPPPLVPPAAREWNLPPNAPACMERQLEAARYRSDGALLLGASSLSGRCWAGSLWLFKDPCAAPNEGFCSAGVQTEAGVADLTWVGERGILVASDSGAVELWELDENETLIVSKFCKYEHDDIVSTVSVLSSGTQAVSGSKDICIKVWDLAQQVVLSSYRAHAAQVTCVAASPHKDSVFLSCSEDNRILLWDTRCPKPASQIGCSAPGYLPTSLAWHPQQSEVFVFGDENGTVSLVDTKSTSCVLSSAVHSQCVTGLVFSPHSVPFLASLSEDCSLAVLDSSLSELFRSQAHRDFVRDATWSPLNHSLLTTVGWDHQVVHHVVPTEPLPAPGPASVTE
Sequence of EHMT2 (Q96KQ7 whole entry): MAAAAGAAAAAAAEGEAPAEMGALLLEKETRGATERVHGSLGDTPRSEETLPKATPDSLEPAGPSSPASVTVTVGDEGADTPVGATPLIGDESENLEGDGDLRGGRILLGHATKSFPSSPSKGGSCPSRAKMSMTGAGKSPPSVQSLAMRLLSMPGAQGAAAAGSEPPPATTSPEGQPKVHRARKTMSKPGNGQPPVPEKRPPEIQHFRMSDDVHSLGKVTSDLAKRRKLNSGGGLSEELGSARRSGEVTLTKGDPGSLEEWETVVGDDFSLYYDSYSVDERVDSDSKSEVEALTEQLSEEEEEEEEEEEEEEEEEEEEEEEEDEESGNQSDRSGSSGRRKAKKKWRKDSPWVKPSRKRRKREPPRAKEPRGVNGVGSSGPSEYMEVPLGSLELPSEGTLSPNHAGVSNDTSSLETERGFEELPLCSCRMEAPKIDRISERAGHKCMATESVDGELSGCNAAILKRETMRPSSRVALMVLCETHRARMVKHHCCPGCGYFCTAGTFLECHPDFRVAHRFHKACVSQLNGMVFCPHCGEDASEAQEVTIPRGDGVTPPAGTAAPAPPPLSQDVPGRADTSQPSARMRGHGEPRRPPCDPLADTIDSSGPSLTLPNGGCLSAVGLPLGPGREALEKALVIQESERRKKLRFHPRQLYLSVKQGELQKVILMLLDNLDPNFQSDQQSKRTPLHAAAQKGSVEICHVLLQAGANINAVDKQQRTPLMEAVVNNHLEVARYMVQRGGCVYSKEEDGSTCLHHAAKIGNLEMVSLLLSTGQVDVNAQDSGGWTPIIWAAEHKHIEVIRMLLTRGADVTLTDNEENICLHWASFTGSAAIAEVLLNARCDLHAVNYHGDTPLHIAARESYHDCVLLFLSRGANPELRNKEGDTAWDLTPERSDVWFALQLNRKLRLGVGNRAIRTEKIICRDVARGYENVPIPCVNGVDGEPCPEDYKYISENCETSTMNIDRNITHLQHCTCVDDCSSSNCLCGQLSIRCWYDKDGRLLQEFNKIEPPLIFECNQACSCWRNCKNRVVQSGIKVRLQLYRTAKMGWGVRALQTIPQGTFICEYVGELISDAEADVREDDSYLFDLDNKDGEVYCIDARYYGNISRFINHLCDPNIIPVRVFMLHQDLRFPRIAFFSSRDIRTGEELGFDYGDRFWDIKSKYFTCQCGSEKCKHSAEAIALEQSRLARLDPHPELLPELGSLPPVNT
Sequence of EZH2 (in the context of the PRC2 multiprotein complex) (Q15910 whole entry): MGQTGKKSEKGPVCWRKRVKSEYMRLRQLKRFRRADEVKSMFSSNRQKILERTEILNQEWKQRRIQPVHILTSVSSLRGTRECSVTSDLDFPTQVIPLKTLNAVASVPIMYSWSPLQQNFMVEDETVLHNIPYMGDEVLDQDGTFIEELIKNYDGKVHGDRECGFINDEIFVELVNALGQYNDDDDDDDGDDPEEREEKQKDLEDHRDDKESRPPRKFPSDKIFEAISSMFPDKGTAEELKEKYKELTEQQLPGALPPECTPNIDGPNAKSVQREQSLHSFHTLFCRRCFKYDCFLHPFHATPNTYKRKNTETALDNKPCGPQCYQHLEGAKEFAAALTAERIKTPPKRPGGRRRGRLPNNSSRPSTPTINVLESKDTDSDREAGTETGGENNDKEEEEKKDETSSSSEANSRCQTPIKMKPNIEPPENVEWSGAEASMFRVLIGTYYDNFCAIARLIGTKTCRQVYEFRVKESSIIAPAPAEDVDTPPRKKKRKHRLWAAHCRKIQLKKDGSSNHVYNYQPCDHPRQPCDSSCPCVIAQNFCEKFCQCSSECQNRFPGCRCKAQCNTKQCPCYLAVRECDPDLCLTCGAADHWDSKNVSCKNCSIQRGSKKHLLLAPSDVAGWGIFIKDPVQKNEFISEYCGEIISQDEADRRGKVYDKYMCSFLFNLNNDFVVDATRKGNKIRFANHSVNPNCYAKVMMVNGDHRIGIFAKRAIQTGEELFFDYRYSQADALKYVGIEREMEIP
Sequence of EZH2 (in the context of the PRC2 multiprotein complex) (O75530 whole entry partner): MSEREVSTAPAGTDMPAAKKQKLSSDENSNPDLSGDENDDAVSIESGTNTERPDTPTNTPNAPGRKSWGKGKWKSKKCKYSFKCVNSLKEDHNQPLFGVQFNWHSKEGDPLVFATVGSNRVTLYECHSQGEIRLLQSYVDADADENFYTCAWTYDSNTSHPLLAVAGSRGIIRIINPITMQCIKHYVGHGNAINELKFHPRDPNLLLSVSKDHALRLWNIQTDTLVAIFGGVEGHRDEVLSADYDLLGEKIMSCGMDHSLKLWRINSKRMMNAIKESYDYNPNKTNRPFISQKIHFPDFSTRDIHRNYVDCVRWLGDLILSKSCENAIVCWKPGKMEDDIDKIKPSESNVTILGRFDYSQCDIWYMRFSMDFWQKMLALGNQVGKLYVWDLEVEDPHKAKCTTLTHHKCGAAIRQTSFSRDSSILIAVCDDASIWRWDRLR
Sequence of EZH2 (in the context of the PRC2 multiprotein complex) (Q15022 whole entry partner): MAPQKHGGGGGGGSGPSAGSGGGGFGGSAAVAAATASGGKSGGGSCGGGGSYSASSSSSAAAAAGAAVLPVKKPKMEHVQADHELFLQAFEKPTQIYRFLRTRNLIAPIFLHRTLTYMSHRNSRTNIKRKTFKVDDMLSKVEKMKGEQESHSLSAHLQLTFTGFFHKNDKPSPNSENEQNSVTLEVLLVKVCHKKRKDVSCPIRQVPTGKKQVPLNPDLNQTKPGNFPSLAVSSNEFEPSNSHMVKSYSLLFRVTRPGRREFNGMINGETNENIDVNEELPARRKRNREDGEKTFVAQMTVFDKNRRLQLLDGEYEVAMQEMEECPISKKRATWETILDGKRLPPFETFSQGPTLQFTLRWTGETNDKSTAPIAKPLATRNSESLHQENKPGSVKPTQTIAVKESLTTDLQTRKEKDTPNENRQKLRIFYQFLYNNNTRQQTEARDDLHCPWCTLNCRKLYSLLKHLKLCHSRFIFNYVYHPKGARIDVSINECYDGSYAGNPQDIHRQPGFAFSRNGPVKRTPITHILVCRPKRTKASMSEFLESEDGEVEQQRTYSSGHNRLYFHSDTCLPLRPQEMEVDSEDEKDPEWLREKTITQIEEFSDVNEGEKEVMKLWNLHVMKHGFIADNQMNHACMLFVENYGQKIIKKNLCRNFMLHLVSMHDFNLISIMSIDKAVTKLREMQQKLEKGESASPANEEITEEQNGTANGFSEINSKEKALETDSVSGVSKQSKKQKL
Sequence of EZH2 (in the context of the PRC2 multiprotein complex) (Q09028 whole entry partner): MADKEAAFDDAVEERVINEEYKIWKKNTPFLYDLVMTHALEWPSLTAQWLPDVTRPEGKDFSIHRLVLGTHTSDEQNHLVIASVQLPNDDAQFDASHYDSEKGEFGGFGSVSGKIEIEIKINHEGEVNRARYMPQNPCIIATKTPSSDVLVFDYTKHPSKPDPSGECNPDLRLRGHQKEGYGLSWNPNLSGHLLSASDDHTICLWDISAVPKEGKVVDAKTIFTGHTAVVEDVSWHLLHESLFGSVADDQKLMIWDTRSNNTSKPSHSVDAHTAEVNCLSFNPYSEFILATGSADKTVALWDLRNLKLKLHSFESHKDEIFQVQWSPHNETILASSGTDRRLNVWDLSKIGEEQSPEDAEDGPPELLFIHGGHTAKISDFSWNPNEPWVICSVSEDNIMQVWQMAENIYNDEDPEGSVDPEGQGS
Sequence of PRMT1 (Q99873 whole entry): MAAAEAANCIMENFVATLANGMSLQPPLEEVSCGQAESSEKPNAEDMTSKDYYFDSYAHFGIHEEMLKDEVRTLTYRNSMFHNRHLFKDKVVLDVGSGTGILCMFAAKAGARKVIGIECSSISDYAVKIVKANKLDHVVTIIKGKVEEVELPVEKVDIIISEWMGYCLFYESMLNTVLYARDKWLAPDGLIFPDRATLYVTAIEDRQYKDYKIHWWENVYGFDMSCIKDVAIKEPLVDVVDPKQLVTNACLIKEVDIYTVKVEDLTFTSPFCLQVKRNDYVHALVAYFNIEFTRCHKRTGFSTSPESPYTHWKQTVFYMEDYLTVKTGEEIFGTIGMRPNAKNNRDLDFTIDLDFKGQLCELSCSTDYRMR

In the case of `CC(C)N(CCCNC(=O)Nc1ccc(C(C)(C)C)cc1)C[C@H]1O[C@@H](n2ccc3c(N)ncnc32)[C@H](O)[C@@H]1O` [EPZ004777], the “number of viable cells” value (MV4-11 cells (MLL-AF4); 3 μM, extended treatment) is reported as “dramatically reduced”, the IC50 (MV4-11 cells (MLL-AF4); Homo sapiens, MV4-11, 336 h, read-out: IC50 inhibition of cell proliferation) is reported as 0.17 µM and the “time to maximal reduction of HOXA9 and MEIS1 transcripts” value [1] is reported as 6 to 8 days. For the same compound, the “time to significant decrease of HOXA9 and MEIS1 transcripts” value [1] was at most 48 h, the “transcript levels of housekeeping gene TBP” value ([1]; 8 days) was “unaffected” and the IC50 (SEM cells (MLL-AF4)) was 1.72 µM. The “cell surface expression of CD14” value [2] was “induced”, the IC50 (PRMT5; IC50, ± 95% confidence interval) was 0.521 ± 0.137 µM and the IC50 (PRMT5; biochemical IC50, only HMT other than DOT1L below this bound) was under 50 µM. The “concentration strongly inhibiting proliferation” value [3] was at least 3 µM, the “global H3K79me2 levels” value [4] was “concentration-dependent reduction” and the IC50 [5, 23] was about 0.7 µM. For the same compound, the IC50 [5, 24] was about 0.7 µM, the solubility (Solubility) was at most 50 µM and the solubility (Solubility; 15% ethanol, 50% PEG300, 35% water) was 150 mg/mL. The “global H3K79me2 levels” value [6] was “concentration-dependent reduction”, the G0/G1 phase cells (MV4-11 cells; 4 days) was “modest increase” and the S-phase cells (MV4-11 cells; 4 days) was “decrease”. For the same compound, the “sub-G1 and Annexin-positive cells” value (MV4-11 cells; days 4 to 10) was “increase”, the IC50 [7] was over 50 µM and the pharmacokinetic properties ([8]; precluded conventional dosing) was “poor”. The “average circulating plasma level” value ([8]; pump 50 mg/ml, s.c. MV4-11 xenograft mice) was 0.55 ± 0.12 µM, the “average steady-state plasma concentration” value ([8]; pump 100 mg/ml) was 0.64 ± 0.48 µM and the “average steady-state plasma concentration” value ([8]; pump 150 mg/ml) was 0.84 ± 0.45 µM. For the same compound, the IC50 (PRMT8) was over 50 µM, the H3K79 methylation [9] was “inhibited H3K79 methylation” and the “survival of transformed progenitors” value [10] was “unaffected”. For the same compound, the “pump implant site reaction” value ([11]; 100 and 150 mg/ml groups) was “Local irritation at the pump implant site”, the body weight ([11]; NSG mice, 14 days) was “no significant weight loss” and the tolerability ([11]; NSG mice, 14 days) was “well tolerated”. The median survival ([11]; pumps 50, 100 or 150 mg/ml, 14 days exposure, log-rank test) was “dose-dependent and statistically significant increase”, the growth of cells ([12]; 3 μM, extended treatment) was “unaffected” and the IC50 ([12]; Homo sapiens, Jurkat, 336 h, read-out: IC50 inhibition of cell proliferation) was over 50 µM. The H3K79me1 levels [13] was “reduced”, the “H4R3me2 (residue targeted by PRMT5)” value [13] was “no changes” and the “methylation state of H3K9 and H3K4 (PRDM and SMYD family targets)” value [13] was “did not change”. The IC50 (CARM1) was over 50 µM, the IC50 (WHSC1) was over 50 µM and the IC50 (RS4;11 cells (MLL-AF4)) was 6.47 µM. For the same compound, the IC50 [14] was 13.9 µM, the “number of viable cells” value (MOLM-13 cells (MLL-AF9); 3 μM, extended treatment) was “dramatically reduced” and the IC50 (MOLM-13 cells (MLL-AF9); Homo sapiens, 336 h, read-out: IC50 inhibition of cell proliferation) was 0.72 µM. The IC50 [15] was over 50 µM, the IC50 [16] was over 50 µM and the IC50 (EHMT2) was over 50 µM. For the same compound, the bone marrow cellularity (normal C57BL/6 mice) was “preserved”, the “colony forming potential of bone marrow progenitors” value (normal C57BL/6 mice) was “did not find any significant differences” and the “granulocyte/monocyte progenitors (GMP)” value (normal C57BL/6 mice) was “not significantly affected”. The overt toxicity (normal C57BL/6 mice) was “no overt toxicity”, the tolerability (normal C57BL/6 mice) was “well tolerated” and the “populations highly enriched for hematopoietic stem cells” value (normal C57BL/6 mice; versus control mice) was “did not reveal any difference”. The “committed progenitors (Lin-Sca-1-c-Kit+)” value (normal C57BL/6 mice; most apparent in CMP and MEP) was “statistically significant decrease”, the “total white blood cell count” value (normal C57BL/6 mice; neutrophils, monocytes, lymphocytes increased) was “statistically significant increase” and the IC50 [17] was 33 µM. For the same compound, the IC50 (SETD7) was over 50 µM, the “time to full depletion of H3K79me2” value ([18]; 3 μM) was 4 to 5 days and the “global H3K79me2 levels” value ([18]; 4 days, increasing concentrations) was “concentration-dependent reduction”. The IC50 (PRMT1) was over 50 µM, the IC50 [19, 23] was about 0.7 µM and the IC50 [19, 24] was about 0.7 µM. The H3K79 methylation [20] was “inhibited H3K79 methylation”, the IC50 [21] was 36.6 µM and the IC50 [22] was over 50 µM. The IC50 (KOPN-8 cells (MLL-ENL)) was 0.62 µM.
